According to article PMC11677424, “Early-Stage IM Treatment with the Host-Derived Immunostimulant CPDI-02 Increases Curative Protection of Healthy Outbred Mice Against Subcutaneous Infection with Community-Acquired Methicillin-Resistant Staphylococcus aureus USA300” (Pharmaceutics, 2024):
pEC50: −log10 of the molar value. In brackets after ≈: the same amount, converted by molar mass.

Experiments:
[1] = Preliminary PK and distribution after IM or IV administration (LC-MS/MS); assay type: in vivo, female outbred CD-1 mice
Experimental: Female outbred CD-1 mice (4-6 weeks old) were infected SQ with CA-MRSA, as described (Section 2.4). At 6 h post-infection, vehicle alone (PBS) or vehicle containing 12.5 mg CPDI-02/kg (IV) or 50 mg/kg (IM) and blood samples (50 µL) were collected from the submandibular vein (Medipoint Goldenrod Lancet, 5 mm) at 2, 4, 8, and 24 h post-treatment into EDTA-coated tubes containing 200 µL of acidified methanol (0.1% formic acid v/v), and immediately mixed by repeated inversion. Samples were pelleted (16,000 RCF) for 10 min, and supernatants were stored at −80 °C until analysis. At 24 h post-challenge, mice were euthanized, and rear flanks were disinfected with 70% ethanol. Abscesses (Section 2.5) and organs were excised, rinsed with deionized H2O, dried, and 50 mg sections were collected in 200 µL of acidified methanol, homogenized using a gentleMACS Dissociator (Miltenyi Biotec 130-093-235, Tokyo, Japan), and stored at −80 °C until analysis.
Peptide quantitation was performed using a Waters ACQUITY UPLC system coupled to a Xevo TQ-XS Tandem Quadrupole Mass Spectrometer with electrospray ionization. […] The following MRM m/z values were monitored: 621.4 > 84 and 621.4 > 100 for the analyte and IS, respectively. Peptide concentrations were determined using analyte-to-IS peak area ratios. […]

[2] = tested on: primary human mononuclear phagocytes (MPs); conditions: cited from earlier work
Description: (§1) Complement Peptide-Derived Immunostimulant-02 (CPDI-02) (formerly EP67) is a novel, second-generation host-derived decapeptide agonist of […] (C5) Receptor 1 (C5aR1/C5a1R/CD88), which is based on the C-terminal pharmacophore of human Complement Peptide C5a (hC5a).

[3] = tested on: primary human neutrophils (NPs); conditions: cited from earlier work
Description: as §1

[4] = tested on: healthy male and female outbred CD-1 mice; experiment: IM dose escalation in healthy CD-1 mice; assay type: in vivo
Experimental: Twenty-four CD-1 mice, approximately 4 weeks old, were randomized by weight and sex into four cohorts and then intramuscularly administered either vehicle alone (filter-sterilized 0.2 μm endotoxin-free PBS) or vehicle containing CPDI-02 twice a week over 4 weeks (eight doses total). CPDI-02 doses began at 15 mg/kg and subsequent doses were increased by a conventional modified Fibonacci scheme (increase over previous dose: 100%, 67%, 50%, 40%, 30%, 33%, 33%) to a final dose of 225 mg/kg. Mice were weighed prior to the study and prior to each dose administration. On each dose administration date, mice were assigned a Pain and Distress Assessment Score (Table S1). Four days after the last treatment, mice were euthanized, whole blood was collected for complete blood count (CBC) with differential (VetScan® HM5 Hematology Analyzer), and the thymus, heart, lungs, brain, liver, spleen, kidneys, femur bone marrow, popliteal lymph nodes, Peyer’s patches, and injection site muscle (left caudal thigh muscle) were collected. Collected tissues were fixed in 10% formalin for 48 h and then embedded in paraffin. Before embedment in paraffin, femur bone marrow samples underwent decalcification by shaking in 10% formic acid for 8 h. Paraffin samples were cut into sections and underwent a Hematoxylin and Eosin (H&E) stain, then analyzed for signs of inflammation and other tissue abnormalities utilizing a Nikon Eclipse E600 at 40× magnification, and imaged using a Lumenera Infinity 2 Microscope Camera.

physchem = conditions: aqueous buffer
CA-MRSA USA300 LAC = experiment: CA-MRSA burden of subcutaneous abscesses after single IM treatment; assay type: in vivo, Staphylococcus aureus; conditions: female CD-1 mice, single IM 50 mg/kg at 6 h post-challenge, Day 1 post-challenge
Experimental: At 24 h post-challenge (Section 2.4: single IM treatment), mice were euthanized (n = 5 per cohort) and rear flanks were disinfected with 70% EtOH. Abscess and skin biopsies (Tru-Punch Sterile Disposable Biopsy Punch Razors, 8 mm^2, Sklar instruments 961130) were suspended in TSB [2 mL] and homogenized in C tubes (Miltenyi Biotec 130-093-237, Bergisch Gladbach, DE) using a gentleMACS Dissociator (Miltenyi Biotec 130-093-235, program B). Homogenized abscess tissues were serially diluted in PBS and plated on TSA plates and incubated at 37 °C for 24 h, and bacterial colonies were counted. Bacterial colony counts per abscess were normalized to starting tissue weights and compared using a Mann–Whitney test (nonparametric t-test). Sections of paraffin-embedded tissues collected above were also Gram-stained and analyzed on a Nikon Eclipse E600 (Minato City, Japan) at 200× magnification and imaged using a Lumenera Infinity 2 Microscope Camera (Ottawa, ON, Canada).

## CSCC[C@H](NC(=O)[C@H](CC(=O)O)NC(=O)[C@H](CCCCN)NC(=O)[C@H](Cc1ccccc1)NC(=O)[C@H](CO)NC(=O)[C@@H](N)Cc1ccc(O)cc1)C(=O)N1CCC[C@H]1C(=O)N(C)[C@@H](CC(C)C)C(=O)N[C@H](C)C(=O)N[C@@H](CCCNC(=N)N)C(=O)O [CPDI-02]
[1]; IM 50 mg/kg vs IV 12.5 mg/kg, 18 h post-treatment, n = 3 to 5
  relative distribution to heart, lungs, liver, kidneys, spleen or brain, IM vs IV: no effect
[1]; abscess-bearing female CD-1 mice, IM 50 mg/kg vs IV 12.5 mg/kg at 6 h post-challenge, 2, 4, 8, 24 h post-treatment, n = 5
  plasma concentrations after IM vs IV administration: increased
[2]; primary human MPs vs primary human NPs
  potency for activating MPs over NPs: 10^3 fold
[2]; primary human MPs
  pEC50: 6.78
[3]
  pEC50: 3.80
[4]; male and female CD-1 mice, IM twice a week, 15 up to 225 mg/kg over 28 days, 8 doses, n = 6
  weight gain or survival: did not affect
[4]; male mice, four days after final dose, H&E, vehicle none
  mice with signs of inflammation around the injection site: 50%
[4]; mouse, in vivo
  mice with signs of inflammation around the injection site: 83%
  signs of inflammation in thymus, heart, lungs, brain, liver, spleen, kidneys, femur bone marrow, popliteal lymph nodes, Peyer's patches: did not increase
[4]; mouse, in vivo, 225 mg/kg
  platecrit vs vehicle alone: decreased
  platelets vs vehicle alone: decreased
physchem
  solubility: ~100 mg/mL (≈ 80.5 mM)
CA-MRSA USA300 LAC; histochemistry
  detectable CA-MRSA in subcutaneous abscesses (Gram staining) vs vehicle: qualitatively decreased
CA-MRSA USA300 LAC; mean ± SD, vehicle 3 × 10^6 ± 2 × 10^6, SD
  CA-MRSA CFU/g of abscess tissue: 1.8 × 10^6 ± 0.8 × 10^6 CFU/g of abscess tissue
